Results: article PMC8248988, “A signal capture and proofreading mechanism for the KDEL-receptor explains selectivity and dynamic range in ER retrieval” (eLife, 2021)

Assays:
[1] = test system: endogenous KDEL receptor in COS-7 cells; assay: ER retrieval assay, endogenous KDEL receptor redistribution; format: cell-based, African green monkey
Excerpt: Figure 1. ER retrieval signal abundance and affinity are not correlated. (a) Sequence logos for ER resident proteins with C-terminal KDEL retrieval signals and variants thereof calculated using frequency or protein abundance ([Itzhak et al., 2017]; [Itzhak et al., 2016]). (b) Combined cellular concentrations of ER resident proteins with canonical KDEL, RDEL, and HDEL retrieval sequences in HeLa cells and mouse brain. (c) Competition binding assays for [^3H]-TAEHDEL and unlabelled TAEKDEL, TAERDEL, and TAEHDEL to the KDEL receptor. IC50 values for the competing peptides were used to calculate the apparent KDwith the Cheng-Prusoff equation ([Cheng and Prusoff, 1973]). (d) Endogenous KDEL receptor redistribution was measured in COS-7 cells in the absence (-ligand) or presence of K/R/H/A/DDEL (mScarlet-xDEL^sec). TGN46 was used as a Golgi marker. Scale bar is 10 µm. (e) The mean difference for K/R/H/A/DDEL comparisons against the shared no ligand control are shown as Cummings estimation plots. The individual data points for the fraction of KDEL receptor fluorescence in the Golgi are plotted on the upper axes with sample sizes and p values. Figure 1—source data 1. Source data for the ligand-induced KDELR receptor retrieval assays in Figure 1e. Figure 1—figure supplement 1. […] Endogenous ER chaperone secretion was measured by western blotting after challenge with different retrieval signals, and plotted as a bar graph showing mean ± SEM (n = 3). […] (a) Distribution of human KDELR1 and (b) KDELR2 was measured in COS-7 cells in the absence (-ligand) or presence of K/R/H/A/DDEL retrieval signals (K/R/H/A/DDEL^sec). […] The fraction of KDEL receptor localised to the Golgi was measured before (no ligand) and after challenge with different retrieval signals as indicated. […]
To create KDELR1-GFP and KDELR2-GFP, the reading frames for Homo sapiens KDELR1 (Uniprot: P24390) and KDELR2 (Uniprot: P33947) were cloned into the pEF5/FRT low level mammalian expression vector with a C-terminal 20 amino acid linker made up of 5 copies of Gly-Ser-Ser-Ser followed by GFP. […]

[2] = test system: BIP and PDI, ERP72 and ERP44; assay: ER chaperone secretion assay, all four chaperones; format: cell-based, human; details: HeLa S3 cells
Excerpt: Figure 1. ER retrieval signal abundance and affinity are not correlated. (a) Sequence logos for ER resident proteins with C-terminal KDEL retrieval signals and variants thereof calculated using frequency or protein abundance ([Itzhak et al., 2017]; [Itzhak et al., 2016]). (b) Combined cellular concentrations of ER resident proteins with canonical KDEL, RDEL, and HDEL retrieval sequences in HeLa cells and mouse brain. (c) Competition binding assays for [^3H]-TAEHDEL and unlabelled TAEKDEL, TAERDEL, and TAEHDEL to the KDEL receptor. IC50 values for the competing peptides were used to calculate the apparent KDwith the Cheng-Prusoff equation ([Cheng and Prusoff, 1973]). (d) Endogenous KDEL receptor redistribution was measured in COS-7 cells in the absence (-ligand) or presence of K/R/H/A/DDEL (mScarlet-xDEL^sec). TGN46 was used as a Golgi marker. Scale bar is 10 µm. […] The individual data points for the fraction of KDEL receptor fluorescence in the Golgi are plotted on the upper axes with sample sizes and p values. […] Endogenous ER chaperone secretion was measured by western blotting after challenge with different retrieval signals, and plotted as a bar graph showing mean ± SEM (n = 3). […] (a) Distribution of human KDELR1 and (b) KDELR2 was measured in COS-7 cells in the absence (-ligand) or presence of K/R/H/A/DDEL retrieval signals (K/R/H/A/DDEL^sec). […]

ADEL [pcDNA3.1 hGHss-mScarlet-H. sapiens BiP639-654K651A (ADEL^SEC), secreted mScarlet fusion with human BiP C-terminus, ADEL signal]
localisation of the mScarlet ligand (in words) ([1]; COS-7 cells): predominantly Golgi and punctate localisation consistent with secretion | endogenous KDEL receptor redistribution from Golgi to ER (in words) ([1]; COS-7 cells expressing mScarlet-xDEL^sec): little effect on the Golgi-ER distribution of the receptor | effect on ER retention of BIP, PDI, ERP72 and ERP44 (in words) [2]: little effect on ER retention
